Measurements: patent US20260092071A1, “COMPOUNDS AND COMPOSITIONS AS SMARCA2/4 DEGRADERS AND USES THEREOF” (REGENTS OF THE UNIVERSITY OF MICHIGAN, priority 2022, published 2026)
Like-named read-outs stand apart in the source and are kept apart here.

Legend:
[1] = target: SMARCA4 (Homo sapiens, UniProt P51532); test: HiBiT assay for protein degradation, Hela SMARCA4-HiBiT cells (A series); format: cell-based; set-up: fuse HiBiT to the carboxy terminus of SMARCA2 (Promega CS302365) or SMARCA4 (Promega CS3023225); host or cells: HeLa (CRISPR/Cas9 HiBiT knock-in); conditions: for DC50: read-out: SMARC A4 Hela HiBit DC50
Protocol: (§1) Hela cells were genetically modified via CRISPR/Cas9 to fuse HiBiT to the carboxy terminus of SMARCA2 (Promega CS302365) or SMARCA4 (Promega CS3023225). Cells were cultured in DMEM containing 10% FBS and 1% (Vol:Vol) penicillin-streptomycin. […] At the end of experiment, levels of SMARCA2 or SMARCA4 expression were assessed with Nano-Glo® HiBiT Lytic Detection Assay (Promega N3050). IC50 was obtained using the GraphPad Prism data analysis software.

[2] = target: SMARCA2 (Homo sapiens, UniProt P51531); test: HiBiT assay for protein degradation, Hela SMARCA2-HiBiT cells (A series); format: cell-based; set-up: Hela cells were genetically modified via CRISPR/Cas9 to fuse HiBiT to the carboxy terminus of SMARCA2; host or cells: HeLa (CRISPR/Cas9 HiBiT knock-in); conditions: for DC50: read-out: SMARC A2 Hela HiBit DC50; for Dmax: read-out: SMARC A2 Hela HiBit Dmax (%);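 on SMARC A2 Hela HiBit Dmax (%): 24 h compound treatment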
Protocol: as §1

[3] = Hela SMARCA4-HiBiT cells, 24 hours treatment
[4] = Hela SMARCA2-HiBiT cells, 24 hours treatment
[5] = Hela SMARCA4-HiBiT cells, 24 hours treatment, read-out: SMARC A4 Hela HiBit Dmax(%)
[6] = Hela SMARCA4-HiBiT cells, 24 hours treatment, read-out: SMARC A4 Hela HiBit Dmax

Chain of SMARCA2 (P51531 whole entry): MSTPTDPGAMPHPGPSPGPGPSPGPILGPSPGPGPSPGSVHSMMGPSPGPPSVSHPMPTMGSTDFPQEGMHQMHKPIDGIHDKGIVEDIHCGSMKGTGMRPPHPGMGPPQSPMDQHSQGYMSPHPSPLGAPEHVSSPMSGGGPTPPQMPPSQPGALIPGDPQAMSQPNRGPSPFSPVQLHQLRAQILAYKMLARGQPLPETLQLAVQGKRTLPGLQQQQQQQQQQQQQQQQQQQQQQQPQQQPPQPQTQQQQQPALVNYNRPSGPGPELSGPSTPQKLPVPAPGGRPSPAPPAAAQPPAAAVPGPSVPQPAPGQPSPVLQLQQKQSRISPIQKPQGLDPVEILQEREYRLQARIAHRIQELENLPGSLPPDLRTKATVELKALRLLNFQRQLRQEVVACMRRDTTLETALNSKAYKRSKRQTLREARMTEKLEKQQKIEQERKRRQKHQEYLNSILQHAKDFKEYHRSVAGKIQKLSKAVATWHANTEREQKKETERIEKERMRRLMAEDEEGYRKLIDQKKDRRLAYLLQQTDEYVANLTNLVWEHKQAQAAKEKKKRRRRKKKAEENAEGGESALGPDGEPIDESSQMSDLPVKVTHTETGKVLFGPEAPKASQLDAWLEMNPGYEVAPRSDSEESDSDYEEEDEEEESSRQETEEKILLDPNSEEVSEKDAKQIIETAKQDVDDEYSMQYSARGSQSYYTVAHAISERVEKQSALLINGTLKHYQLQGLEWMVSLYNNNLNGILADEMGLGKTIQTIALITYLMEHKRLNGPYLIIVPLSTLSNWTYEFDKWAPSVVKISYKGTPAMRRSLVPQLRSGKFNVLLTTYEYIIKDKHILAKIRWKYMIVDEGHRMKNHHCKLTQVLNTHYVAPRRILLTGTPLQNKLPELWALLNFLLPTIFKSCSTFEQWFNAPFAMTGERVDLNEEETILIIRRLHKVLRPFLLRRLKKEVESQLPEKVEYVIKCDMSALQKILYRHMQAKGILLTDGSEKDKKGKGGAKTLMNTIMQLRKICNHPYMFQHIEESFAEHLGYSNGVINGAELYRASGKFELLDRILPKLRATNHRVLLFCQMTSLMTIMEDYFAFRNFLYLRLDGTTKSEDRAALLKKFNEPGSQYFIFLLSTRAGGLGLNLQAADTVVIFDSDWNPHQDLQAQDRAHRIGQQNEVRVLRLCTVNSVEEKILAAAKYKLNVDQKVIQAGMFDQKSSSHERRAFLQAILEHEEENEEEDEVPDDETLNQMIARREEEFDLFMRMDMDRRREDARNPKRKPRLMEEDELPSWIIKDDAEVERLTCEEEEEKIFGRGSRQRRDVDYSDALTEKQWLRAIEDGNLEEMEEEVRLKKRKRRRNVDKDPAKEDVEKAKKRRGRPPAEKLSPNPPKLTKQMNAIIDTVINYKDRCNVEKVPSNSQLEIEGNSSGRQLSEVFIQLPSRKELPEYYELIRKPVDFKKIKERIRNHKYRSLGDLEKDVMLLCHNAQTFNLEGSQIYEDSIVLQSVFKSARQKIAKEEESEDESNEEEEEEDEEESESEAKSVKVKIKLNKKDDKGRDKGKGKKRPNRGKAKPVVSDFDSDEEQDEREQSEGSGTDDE
Chain of SMARCA4 (P51532 whole entry): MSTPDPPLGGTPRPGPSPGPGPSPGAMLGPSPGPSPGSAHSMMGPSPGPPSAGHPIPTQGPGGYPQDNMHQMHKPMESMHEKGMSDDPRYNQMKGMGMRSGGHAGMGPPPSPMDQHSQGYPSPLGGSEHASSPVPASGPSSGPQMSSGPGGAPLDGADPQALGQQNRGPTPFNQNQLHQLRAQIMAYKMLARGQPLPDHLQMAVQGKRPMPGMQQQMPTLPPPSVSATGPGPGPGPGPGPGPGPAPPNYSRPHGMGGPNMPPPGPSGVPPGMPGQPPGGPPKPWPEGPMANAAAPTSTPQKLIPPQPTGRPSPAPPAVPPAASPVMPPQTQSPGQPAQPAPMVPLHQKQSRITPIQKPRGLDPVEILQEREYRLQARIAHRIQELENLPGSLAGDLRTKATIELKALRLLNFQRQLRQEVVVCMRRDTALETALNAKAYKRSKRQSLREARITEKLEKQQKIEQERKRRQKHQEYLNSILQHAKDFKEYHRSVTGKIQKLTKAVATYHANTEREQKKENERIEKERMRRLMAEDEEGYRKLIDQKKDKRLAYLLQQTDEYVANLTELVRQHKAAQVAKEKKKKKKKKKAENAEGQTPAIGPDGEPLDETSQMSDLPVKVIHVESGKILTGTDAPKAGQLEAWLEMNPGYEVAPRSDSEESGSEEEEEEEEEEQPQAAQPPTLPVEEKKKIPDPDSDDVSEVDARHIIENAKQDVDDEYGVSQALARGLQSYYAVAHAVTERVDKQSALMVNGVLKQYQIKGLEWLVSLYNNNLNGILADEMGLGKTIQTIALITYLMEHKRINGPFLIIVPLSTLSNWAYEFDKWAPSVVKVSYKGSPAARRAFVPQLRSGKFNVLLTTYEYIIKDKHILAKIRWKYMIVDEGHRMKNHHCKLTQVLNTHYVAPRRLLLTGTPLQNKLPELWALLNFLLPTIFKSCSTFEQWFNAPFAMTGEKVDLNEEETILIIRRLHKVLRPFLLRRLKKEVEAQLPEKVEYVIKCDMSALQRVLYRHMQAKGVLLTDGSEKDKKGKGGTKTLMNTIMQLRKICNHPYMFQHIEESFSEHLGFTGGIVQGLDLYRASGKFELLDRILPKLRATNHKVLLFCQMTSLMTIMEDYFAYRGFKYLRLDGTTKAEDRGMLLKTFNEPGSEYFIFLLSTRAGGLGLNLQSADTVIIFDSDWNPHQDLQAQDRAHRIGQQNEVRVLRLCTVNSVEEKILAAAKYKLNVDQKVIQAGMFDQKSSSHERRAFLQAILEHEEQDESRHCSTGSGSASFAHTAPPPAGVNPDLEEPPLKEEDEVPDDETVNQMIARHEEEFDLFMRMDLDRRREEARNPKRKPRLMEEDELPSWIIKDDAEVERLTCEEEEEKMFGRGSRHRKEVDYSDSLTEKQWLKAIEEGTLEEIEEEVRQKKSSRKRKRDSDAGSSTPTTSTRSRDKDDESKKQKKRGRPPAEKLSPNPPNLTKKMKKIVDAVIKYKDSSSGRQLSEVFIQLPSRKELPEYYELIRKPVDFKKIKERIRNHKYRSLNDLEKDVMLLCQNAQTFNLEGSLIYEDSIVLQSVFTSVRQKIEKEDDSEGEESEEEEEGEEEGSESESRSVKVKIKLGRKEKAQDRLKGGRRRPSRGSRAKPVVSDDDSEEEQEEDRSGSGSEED

SMARC A4 Hela HiBit Dmax(%) [1, 3] | DC50 [1] [nM] | SMARC A2 Hela HiBit Dmax (%) [2, 4] | DC50 [2] [nM] | DC50 [1, 3] [nM] | Dmax [1, 5] [%] | DC50 [2, 4] [nM] | Dmax [2, 4] [%] | Dmax [1, 6] [%] | Structure (SMILES)
A (A (>90% degradation)) | < 100 | A (A (>90% degradation)) | < 100 | – | – | – | – | – | Cc1ncsc1-c1ccc([C@H](CN2CCOCC2)NC(=O)[C@@H]2C[C@@H](O)CN2C(=O)[C@@H](NC(=O)C23CCC(CN4CCC(c5ccc6c(c5)C5(CCCCC5)c5nc(=O)c7c(Br)cccc7n5-6)CC4)(CC2)C3)C(C)(C)C)cc1 [Compound A22, (2S,4R)-1-((S)-2-(4-((4-(4′-bromo-5′-oxo-5′H-spiro[cyclohexane-1,7′-indolo[1,2-a]quinazolin]-9′-yl)piperidin-1-yl)methyl)bicyclo[2.2.1]heptane-1-carboxamido)-3,3-dimethylbutanoyl)-4-hydroxy-N—((R)-1-(4-(4-methylthiazol-5-yl)phenyl)-2-morpholinoethyl)pyrrolidine-2-carboramide]
– | – | – | – | 100 to 500 | 70 to 90 | < 100 | > 90 | – | Cc1ncsc1-c1ccc([C@H](CCCCCN2CCC(c3ccc4c(c3)C3(CCCCC3)c3nc(=O)c5c(Br)cccc5n3-4)CC2)NC(=O)[C@H]2C[C@H](O)CN2C(=O)[C@@H](NC(=O)C2(CN3CCOCC3)CC2)C(C)(C)C)cc1 [Compound A38, (2R,4S)—N—((S)-6-(4-(4′-bromo-5′-oxo-5′H-spiro[cyclohexane-1,7′-indolo[1,2-a]quinazolin]-9′-yl)piperidin-1-yl)-1-(4-(4-methylthiazol-5-yl)phenyl)hexyl)-1-((S)-3,3-dimethyl-2-(1-(morpholinomethyl)cyclopropane-1-carboxamido)butanoyl)-4-hydroxypyrrolidine-2-carboxamide]
– | – | – | – | > 1000 | – | < 10 | > 90 | 50 to 69 | COC(=O)COC[C@H](NC(=O)[C@@H]1C[C@@H](O)CN1C(=O)[C@@H](n1cc([C@H]2CC[C@H](CN3CCC(c4ccc5c(c4)-n4c(nc(=O)c6c(Cl)cccc64)C54CCCCC4)CC3)CC2)nn1)C(C)(C)C)c1ccc(-c2scnc2C)cc1 [Compound A152, methyl 2-((R)-2-((2S,4R)-1-((S)-2-(4-((1r,4S)-4-((4-(4′-chloro-5′-oxo-5′H-spiro[cyclohexane-1,7′-indolo[1,2-a]quinazolin]-10′-yl)piperidin-1-yl)methyl)cyclohexyl)-1H-1,2,3-triazol-1-yl)-3,3-dimethylbutanoyl)-4-hydroxypyrrolidine-2-carboxamido)-2-(4-(4-methylthiazol-5-yl)phenyl)ethoxy)acetate]
– | – | – | – | 10 to 100 | – | < 10 | > 90 | 70 to 90 | CC(=O)N1CCC([C@@H](C(=O)N2C[C@H](O)C[C@H]2C(=O)N[C@@H](C)c2ccc(-c3scnc3C)cc2)n2cc([C@H]3CC[C@H](CN4CCC(c5ccc6c(c5)-n5c(nc(=O)c7c(Cl)cccc75)C65CCCCC5)CC4)CC3)nn2)CC1 [Compound A111, (2S,4R)-1-((S)-2-(1-acetylpiperidin-4-yl)-2-(4-((1r,4S)-4-((4-(4′-chloro-5′-oxo-5′H-spiro[cyclohexane-1,7′-indolo[1,2-a]quinazolin]-10′-yl)piperidin-1-yl)methyl)cyclohexyl)-1H-1,2,3-triazol-1-yl)acetyl)-4-hydroxy-N—((S)-1-(4-(4-methylthiazol-5-yl)phenyl)ethyl)pyrrolidine-2-carboxamide]
– | – | – | – | > 1000 | 50 to 69 | < 100 | > 90 | – | Cc1ncsc1-c1ccc([C@H](CN2CC(C)(F)C2)NC(=O)[C@@H]2C[C@@H](O)CN2C(=O)[C@@H](n2cc([C@H]3CC[C@H](CN4CCC(c5ccc6c(c5)-n5c(nc(=O)c7c(Cl)cccc75)C65CCCCC5)CC4)CC3)nn2)C(C)(C)C)cc1 [Compound A74, (2S,4R)-1-((S)-2-(4-((1r,4S)-4-((4-(4′-chloro-5′-oxo-5′H-spiro[cyclohexane-1,7′-indolo[1,2-a]quinazolin]-10′-yl)piperidin-1-yl)methyl)cyclohexyl)-1H-1,2,3-triazol-1-yl)-3,3-dimethylbutanoyl)-N—((R)-2-(3-fluoro-3-methylazetidin-1-yl)-1-(4-(4-methylthiazol-5-yl)phenyl)ethyl)-4-hydroxypyrrolidine-2-carboxamide]
